The values below come from patent US5512574A, “Quinuclidine and azabicyclo 2.2.1! heptane pyrazinyl ethers as muscarinic agonists” (American Home Products Corporation, priority 1995, dated 1996).

Molecules are shown by their SMILES. Read-outs that look alike come from different tables or passages of the source.

Test [1] concerns the target T1, m1 muscarinic receptor (Homo sapiens, UniProt P11229).
T1 sequence (P11229 1-460): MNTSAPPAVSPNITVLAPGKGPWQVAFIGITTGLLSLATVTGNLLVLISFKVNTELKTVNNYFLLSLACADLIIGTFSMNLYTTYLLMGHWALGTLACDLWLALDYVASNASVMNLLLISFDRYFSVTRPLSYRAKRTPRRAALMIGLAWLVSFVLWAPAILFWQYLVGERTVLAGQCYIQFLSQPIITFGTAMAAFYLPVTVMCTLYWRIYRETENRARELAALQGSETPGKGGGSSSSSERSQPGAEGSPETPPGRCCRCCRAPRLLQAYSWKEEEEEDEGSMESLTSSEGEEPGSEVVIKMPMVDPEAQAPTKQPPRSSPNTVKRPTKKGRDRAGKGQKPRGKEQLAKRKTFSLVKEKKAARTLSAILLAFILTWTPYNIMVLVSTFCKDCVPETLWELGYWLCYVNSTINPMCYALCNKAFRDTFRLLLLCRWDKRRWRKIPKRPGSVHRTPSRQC
The test can be described thus: biochemical. The test is classed as binding.

For test [2], the target named is T2, M1 acetylcholine receptors (Homo sapiens, UniProt P11229).
T2 sequence (P11229 1-460): T1 sequence (P11229 1-460)
Briefly: stimulation of phosphoinositide (PI) hydrolysis in CHO cells expressing M1 acetylcholine receptors. The note with it: for Emax: CHO, 1 h; for m1 CHO @ 30 × Ki % Carbachol / m1 CHO % Carbachol (at Ki): PI hydrolysis, 60 min; for m1 CHO @ 30 × Ki % Carbachol: at 30 × Ki; for EC50: read-out: m1 agonism [P.I.] EC50. The class given is cell-based. The protocol:
(§1) The tubes are incubated for one hour at 37° C. The reaction is quenched with chloroform and the phosphatidyl inositols are extracted with methanol and chloroform. Phase separation is assured with the addition of methanol and water followed by centrifugation. The tritiated inositol phosphates are recovered on BioRad AG 1-X8 anion exchange resin in the formate cycle. After washing the resin with water and myo-inositol, the inositol phosphates are eluted with ammonium formate/formic acid, collected and subjected to liquid scintillation spectroscopy.
(§2) Cloned human receptors in CHO cells were used in these studies.

For test [3], the target named is T3, m2 muscarinic receptor (Homo sapiens, UniProt P08172).
T3 sequence (P08172 1-466): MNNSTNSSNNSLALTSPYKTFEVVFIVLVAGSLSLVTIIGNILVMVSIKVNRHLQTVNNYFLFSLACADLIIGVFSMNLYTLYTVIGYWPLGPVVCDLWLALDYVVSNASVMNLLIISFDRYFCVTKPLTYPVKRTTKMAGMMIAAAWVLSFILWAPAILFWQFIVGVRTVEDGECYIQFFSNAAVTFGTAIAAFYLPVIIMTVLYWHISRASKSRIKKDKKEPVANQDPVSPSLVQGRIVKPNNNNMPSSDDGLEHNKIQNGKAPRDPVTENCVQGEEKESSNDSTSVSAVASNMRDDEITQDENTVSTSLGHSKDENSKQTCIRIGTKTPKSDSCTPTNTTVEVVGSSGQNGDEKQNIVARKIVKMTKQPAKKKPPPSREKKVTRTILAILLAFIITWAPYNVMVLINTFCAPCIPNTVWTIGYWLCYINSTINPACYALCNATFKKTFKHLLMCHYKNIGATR
The test can be described thus: biochemical. The class given is binding.

The target of test [4] is T3, m2 muscarinic receptor. Briefly: m2 agonism (cAMP) / functional selectivity. The class given is cell-based. The note with it: for EC50: cAMP, m2; for Functional Selectivity-m2/m1: ratio of m2 (cAMP) EC50 to m1 (PI) EC50.
Excerpt: Such diseases include presenile and senile dementia (also known as Alzheimer's Disease and Senile Dementia of the Alzheimer Type, respectively), Huntington's Chorea, Tardive Dyskinesia, Hyperkinesia, Mania and Tourette's Syndrome. Alzheimer's Disease is a slowly progressive neurological disorder characterized by deficits in cognitive function including memory, attention, language and visual perception capabilities.
as §2

Test [5] deals with m1 muscarinic receptor (Homo sapiens, UniProt P11229). The test can be described thus: biochemical. The class given is binding. This is another data set of the same source.
Test [6] concerns the target M1 acetylcholine receptors (Homo sapiens, UniProt P11229). The test can be described thus: stimulation of phosphoinositide (PI) hydrolysis in CHO cells expressing M1 acetylcholine receptors. The test is classed as cell-based. The protocol: as §1, §2
The mark [7] stands for this setting: read-out: m1 CHO @ 30 × Ki % Carbachol.
Setting [8] is: percentage of mean carbachol value.
The mark [9] stands for this setting: read-out: [3H]QNB Binding Ki(μM) m2.
Setting [10] is: read-out: m1 CHO % Carbachol (at Ki).
The mark [11] stands for this setting: m2, cloned human receptors in CHO cells, read-out: [3H]QNB Binding Ki(μM) m2.
[12] abbreviates: m1, cloned human receptors in CHO cells, read-out: [3H]QNB Binding Ki(μM) m1.
Where [13] appears, read: read-out: m1 CHO % Carbachol (at Ki), PI hydrolysis, m1 CHO, at Ki, percentage of mean carbachol value.
Setting [14] is: read-out: m1 CHO @ 30 × Ki % Carbachol, PI hydrolysis, m1 CHO, at 30 × Ki, percentage of mean carbachol value.

The molecule `CCCCCCSc1nccnc1SC1CN2CCC1CC2` (stereo not shown) [Example 13, 3-(3-Hexylsulfanyl-pyrazin-2-ylsulfanyl)-1-azabicyclo 2.2.2!octane] returned a Ki at m1 muscarinic receptor [1] of 0.029 µM. For the same molecule, the Emax in test [2] (setting [7]) came to 45.9%.
For the molecule `CCCCCCOc1nccnc1O[C@@H]1CN2CC[C@@H]1C2` (single isomer, unassigned) [Example 9, (-)-(exo)-3-(3-Hexyloxy-pyrazin-2-yloxy)-1-azabicyclo 2.2.1!heptane], in test [2] (setting [8]), the “m1 CHO @ 30 × Ki % Carbachol” value stood at 56%. Also, the Ki at m2 muscarinic receptor [3] (setting [9]) came out at 0.774 µM.
As to `CCCCCCOc1nccnc1OC1CN2CCC1CC2` (stereo not shown) [Example 15], the Ki at m1 muscarinic receptor [1] is 0.14 µM; at m2 muscarinic receptor [3] ([3H]QNB Binding Ki(μM) m2, m2, cloned human receptors in CHO cells) it was 0.124 µM. In test [2] (setting [10]), the Emax stood at 59.6%.
As to `CCCCCCSc1nccnc1O[C@@H]1CN2CC[C@@H]1C2` (single isomer, unassigned) [Example 8, (-)-(exo)-3-(3-Hexylsulfanyl-pyrazin-2-yloxy)-1-azabicyclo 2.2.1!heptane], the “m1 CHO % Carbachol (at Ki)” value in test [2] (setting [8]) was determined as 44.2%. Besides, at m2 muscarinic receptor [3] (setting [11]), the Ki turned out to be 0.008 µM.
Take `CCCCCCSc1nccnc1S[C@@H]1CN2CC[C@@H]1C2` (relative stereo) [Example 12, (exo)-3-(3-Hexylsulfanyl-pyrazin-2-ylsulfanyl)-1-azabicyclo-2.2.1!heptane]: the Ki was determined as 0.03 µM at m1 muscarinic receptor [1] (read-out: [3H]QNB Binding Ki(μM) m1) and 0.064 µM at m2 muscarinic receptor [3] (setting [9]). Also, the Emax in test [2] (setting [7]) was 62%.
As to `CCCCCCOc1nccnc1O[C@H]1CN2CC[C@@H]1C2` (single isomer, unassigned) [Example 5, (+)-endo-3-(3-Hexyloxy-pyrazin-2-yloxy)-1-azabicyclo 2.2.1!heptane], the inhibitory constant (Ki) at m1 muscarinic receptor [1] (setting [12]) turned out to be 0.083 µM; at m2 muscarinic receptor [3] (setting [9]), 0.071 µM. Moreover, in test [2] (setting [8]), the “m1 CHO @ 30 × Ki % Carbachol” value came out at 51%.
`CCCCCCOc1nccnc1SC1CN2CCC1CC2` (stereo not shown) [Example 14, 3-(3-Hexyloxy-pyrazin-2-ylsulfanyl)-1-azabicyclo 2.2.2!octane] came in with a Ki at m1 muscarinic receptor [1] of 0.076 µM. Also, the Emax in test [2] (setting [10]) stood at 29.5%.
Take `CCCCCCSc1nccnc1O[C@@H]1CN2CC[C@@H]1C2` (relative stereo) [Example 6, (exo)-3-(3-Hexylsulfanyl-pyrazin-2-yloxy)-1-azabicyclo 2.2.1!heptane]: the Ki on m1 muscarinic receptor [1] (setting [12]) amounted to 0.123 µM; on m2 muscarinic receptor [3] (setting [11]), 0.088 µM. Moreover, the Emax in test [2] (setting [13]) amounted to 104%.
For `CCCCCCSc1nccnc1O[C@@H]1CN2CC[C@@H]1C2` (single isomer, unassigned) [Example 7, (+)-exo-3-(3-Hexylsulfanyl-pyrazin-2-yloxy)-1-azabicyclo 2.2.1!heptane], the “m1 CHO % Carbachol (at Ki)” value in test [2] (setting [8]) turned out to be 107.3%. The EC50 in test [2] was 10.3 nM. In addition, on m2 muscarinic receptor [4], a half-maximal effect (EC50) was put at 2400 nM and the “Functional Selectivity-m2/m1” value worked out at 240. Further, on m2 muscarinic receptor [3] (setting [11]), the inhibition constant (Ki) was 0.059 µM.
For the molecule `CCCCCCOc1nccnc1S[C@@H]1CN2CC[C@@H]1C2` (relative stereo) [Example 11, (exo)-3-(3-Hexyloxy-pyrazin-2-ylsulfanyl)-1-azabicyclo 2.2.1!heptane], the Ki on m1 muscarinic receptor [1] (setting [12]) was 0.292 µM. In test [2] (setting [13]), the Emax was found to be 41.6%.
In the case of `CCCCCCOc1nccnc1O[C@H]1CN2CC[C@@H]1C2` (single isomer, unassigned), the Ki on m1 muscarinic receptor [5] amounted to 32 nM. The molecule further had an EC50 in test [6] of 5.5 nM.
For `CCCCCCSc1nccnc1O[C@H]1CN2CC[C@@H]1C2` (relative stereo) [Example 2, (endo)-3-(3-Hexylsulfanyl-pyrazin-2-yloxy)-1-aza-bicyclo 2.2.1!heptane], the Ki on m1 muscarinic receptor [1] (setting [12]) turned out to be 0.0067 µM; at m2 muscarinic receptor [3] (setting [11]), 0.013 µM. Besides, the Emax in test [2] (setting [14]) was determined as 97.1%.
Turning to `CCCCCCOc1nccnc1O[C@H]1CN2CC[C@@H]1C2` (relative stereo) [Example 1, (±)-(endo)-3-(3-Hexyloxy-pyrazin-2-yloxy)-1-aza-bicyclo 2.2.1!heptane], the inhibition constant (Ki) at m1 muscarinic receptor [1] (setting [12]) stood at 0.03 µM; on m2 muscarinic receptor [3] (setting [9]), 0.02 µM. Further, in test [2] (setting [14]), the Emax was 102%.
Consider `CCCCCCSc1nccnc1O[C@H]1CN2CC[C@@H]1C2` (single isomer, unassigned) [2(+), (+)-(endo)-3-(3-hexylsulfanyl-pyrazin-2-yloxy)-1-aza-bicyclo 2.2.1!heptane], for which the Ki at m1 muscarinic receptor [1] (setting [12]) is 0.027 µM; at m2 muscarinic receptor [3] (setting [11]), 0.063 µM. For the same molecule, the Emax in test [2] (setting [14]) was found to be 31.1%.
Consider `CCCCCCSc1nccnc1O[C@H]1CN2CC[C@@H]1C2` (single isomer, unassigned) [Example 2(-), (-)-(endo)-3-(3-hexylsulfanyl-pyrazin-2-yloxy)-1-aza-bicyclo 2.2.1!heptane], for which the Emax in test [2] (setting [13]) turned out to be 46.5%. In addition, the EC50 was determined as 0.4 nM in test [2] and 16 nM on m2 muscarinic receptor [4]. Besides, the “Functional Selectivity-m2/m1” value at m2 muscarinic receptor [4] was 40. Further, the Ki at m2 muscarinic receptor [3] (setting [11]) is 0.0045 µM.
For `CCCCCCOc1nccnc1O[C@H]1CN2CC[C@@H]1C2` (single isomer, unassigned) [Example 4], at m2 muscarinic receptor [3] (setting [9]), the Ki stood at 0.024 µM.
As for `CCCCCCOc1nccnc1O[C@@H]1CN2CC[C@@H]1C2` (single isomer, unassigned) [Example 10, (+)-(exo)-3-(3-Hexyloxy-pyrazin-2-yloxy)-1-azabicyclo 2.2.1!heptane], the “m1 CHO @ 30 × Ki % Carbachol” value in test [2] (setting [8]) worked out at 9%. At m2 muscarinic receptor [3] (setting [9]), the Ki turned out to be 0.149 µM.
